Source: patent US8461083B2, “Herbicidal compounds” (Syngenta Limited, priority 2008, dated 2013)

How the values were obtained:
Assay type in all cases: in vivo
[1] = tested on: Setaria faberi (SETFA); assay: Pre-emergence herbicidal glasshouse test; conditions: pre-emergence (sprayed after one day cultivation), evaluated after 13 days, 100=total damage to plant, 0=no damage to plant; for PRE Application SETFA, damage to plant: 1000 g/ha; for pest or weed control at 1000 g/ha: Setaria faberi, 312 h, read-out: PRE Application SETFA, damage to plant
Summary of the method: (§1)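 Damage was rated visually 13 days after treatment on a 0–100 scale, 100 meaning total damage. Pot-grown plants received a 1000 g/ha spray in acetone/water (50:50) containing 0.5% Tween 20, either one day after sowing or after eight days of growth.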

[2] = tested on: Alopecurus myosuroides (ALOMY); assay: Pre-emergence herbicidal glasshouse test; conditions: pre-emergence (sprayed after one day cultivation), evaluated after 13 days, 100=total damage to plant, 0=no damage to plant; for PRE Application ALOMY, damage to plant: 1000 g/ha; for pest or weed control at 1000 g/ha: Alopecurus myosuroides, 312 h, read-out: PRE Application ALOMY, damage to plant
Summary of the method: as §1

[3] = tested on: Solanum nigrum (SOLNI); assay: Pre-emergence herbicidal glasshouse test; conditions: pre-emergence (sprayed after one day cultivation), evaluated after 13 days, 100=total damage to plant, 0=no damage to plant; for PRE Application SOLNI, damage to plant: 1000 g/ha; for pest or weed control at 1000 g/ha: Solanum nigrum, 312 h, read-out: PRE Application SOLNI, damage to plant
Summary of the method: as §1

[4] = tested on: Amaranthus retoflexus (AMARE); assay: Pre-emergence herbicidal glasshouse test; conditions: pre-emergence (sprayed after one day cultivation), evaluated after 13 days, 100=total damage to plant, 0=no damage to plant; for PRE Application AMARE, damage to plant: 1000 g/ha; for pest or weed control at 1000 g/ha: Amaranthus retroflexus, 312 h, read-out: PRE Application AMARE, damage to plant
Summary of the method: as §1

[5] = tested on: Echinochloa crus-galli (ECHCG); assay: Pre-emergence herbicidal glasshouse test; conditions: pre-emergence (sprayed after one day cultivation), evaluated after 13 days, 100=total damage to plant, 0=no damage to plant; for PRE Application ECHCG, damage to plant: 1000 g/ha; for pest or weed control at 1000 g/ha: Echinochloa crus-galli, 312 h, read-out: PRE Application ECHCG, damage to plant
Summary of the method: as §1

[6] = tested on: Setaria faberi (SETFA); assay: Post-emergence herbicidal glasshouse test; conditions: post-emergence (sprayed after 8 days cultivation), evaluated after 13 days, 100=total damage to plant, 0=no damage to plant; for POST Application SETFA, damage to plant: 1000 g/ha; for pest or weed control at 1000 g/ha: Setaria faberi, 312 h, read-out: POST Application SETFA, damage to plant
Summary of the method: as §1

[7] = tested on: Alopecurus myosuroides (ALOMY); assay: Post-emergence herbicidal glasshouse test; conditions: post-emergence (sprayed after 8 days cultivation), evaluated after 13 days, 100=total damage to plant, 0=no damage to plant; for POST Application ALOMY, damage to plant: 1000 g/ha; for pest or weed control at 1000 g/ha: Alopecurus myosuroides, 312 h, read-out: POST Application ALOMY, damage to plant
Summary of the method: as §1

[8] = tested on: Solanum nigrum (SOLNI); assay: Post-emergence herbicidal glasshouse test; conditions: post-emergence (sprayed after 8 days cultivation), evaluated after 13 days, 100=total damage to plant, 0=no damage to plant; for POST Application SOLNI, damage to plant: 1000 g/ha; for pest or weed control at 1000 g/ha: Solanum nigrum, 312 h, read-out: POST Application SOLNI, damage to plant
Summary of the method: as §1

[9] = tested on: Amaranthus retoflexus (AMARE); assay: Post-emergence herbicidal glasshouse test; conditions: post-emergence (sprayed after 8 days cultivation), evaluated after 13 days, 100=total damage to plant, 0=no damage to plant; for POST Application AMARE, damage to plant: 1000 g/ha; for pest or weed control at 1000 g/ha: Amaranthus retroflexus, 312 h, read-out: POST Application AMARE, damage to plant
Summary of the method: as §1

[10] = tested on: Echinochloa crus-galli (ECHCG); assay: Post-emergence herbicidal glasshouse test; conditions: post-emergence (sprayed after 8 days cultivation), evaluated after 13 days, 100=total damage to plant, 0=no damage to plant; for POST Application ECHCG, damage to plant: 1000 g/ha; for pest or weed control at 1000 g/ha: Echinochloa crus-galli, 312 h, read-out: POST Application ECHCG, damage to plant
Summary of the method: as §1

Row | SMILES | PRE Application SETFA, damage to plant [1] | PRE Application ALOMY, damage to plant [2] | PRE Application SOLNI, damage to plant [3] | PRE Application AMARE, damage to plant [4] | PRE Application ECHCG, damage to plant [5] | POST Application SETFA, damage to plant [6] | POST Application ALOMY, damage to plant [7] | POST Application SOLNI, damage to plant [8] | POST Application AMARE, damage to plant [9] | POST Application ECHCG, damage to plant [10] | pest or weed control at 1000 g/ha [1] [%] | pest or weed control at 1000 g/ha [2] [%] | pest or weed control at 1000 g/ha [3] [%] | pest or weed control at 1000 g/ha [4] [%] | pest or weed control at 1000 g/ha [5] [%] | pest or weed control at 1000 g/ha [6] [%] | pest or weed control at 1000 g/ha [7] [%] | pest or weed control at 1000 g/ha [8] [%] | pest or weed control at 1000 g/ha [9] [%] | pest or weed control at 1000 g/ha [10] [%]
1 | O=C1CCCC(=O)C1C(=O)c1cc2cc(F)c(CCF)nc2nc1C(F)(F)F [Compound 1.69] | 90 | 60 | 100 | 20 | 100 | 80 | 60 | 80 | 90 | 80 |  |  |  |  |  |  |  |  |  | 
2 | O=C1CCCC(=O)C1C(=O)c1cc2cc(F)c(NC3CC3)nc2nc1C(F)(F)F [Compound 1.92, 2-[7-(cyclopropylamino)-6-fluoro-2-trifluoromethyl-[1,8]-naphthyridine-3-carbony]-cyclohexane-1,3-dione] | 100 | 60 | 100 | 100 | 100 | 80 | 80 | 80 | 100 | 80 |  |  |  |  |  |  |  |  |  | 
3 | CN(Cc1nc2nc(C(F)(F)F)ccc2cc1C(=O)C1C(=O)CCCC1=O)S(C)(=O)=O [Compound 1.108, 2-[{methanesulfonyl-N-methylaminomethyl}-7-trifluoromethyl-[1,8]-naphthyridine-3-carbony]-cyclohexane-1,3-dione] | 40 | 0 | 90 | 80 | 70 | 80 | 20 | 90 | 70 | 80 |  |  |  |  |  |  |  |  |  | 
4 | CC(C)Cc1nc2nc(C(F)(F)F)c(C(=O)C3C(=O)CCCC3=O)cc2cc1F [Compound 1.70, 2-[6-fluoro-7-(2-methylpropyl)-2-trifluoromethyl-[1,8]-naphthyridine-3-carbony]-cyclohexane-1,3-dione] | 100 | 90 | 100 | 40 | 100 | 90 | 90 | 80 | 90 | 90 |  |  |  |  |  |  |  |  |  | 
5 | Cn1c(=O)ccc2cc(C(=O)C3C(=O)CCCC3=O)c(C(F)(F)F)nc21 [Compound 2.21, 2-(8-methyl-7-oxo-7,8-dihydro-2-trifluoromethyl-[1,8]-naphthyridine-3-carbony)-cyclohexane-1,3-dione] |  |  |  |  |  |  |  |  |  |  | 100 | 90 | 100 | 100 | 100 | 80 | 80 | 80 | 90 | 70
6 | C=CCn1c(=O)ccc2cc(C(=O)C3C(=O)CCCC3=O)c(C(F)(F)F)nc21 [Compound 2.14, 2-{8-allyl-7-oxo-7,8-dihydro-2-trifluoromethyl-[1,8]-naphthyridine-3-carbony}-cyclohexane-1,3-dione] | 80 | 40 | 90 | 60 | 100 | 90 | 80 | 90 | 70 | 90 |  |  |  |  |  |  |  |  |  | 
7 | Cc1nc2nc(C(F)(F)OCC(F)(F)F)c(C(=O)C3C(=O)CCCC3=O)cc2cc1F [Compound 1.91, 2-[6-fluoro-7-methyl-2[(2,2,2-trifluoroethoxy)difluoromethyl]-[1,8]-naphthyridine-3-carbony]-cyclohexane-1,3-dione] | 90 | 10 | 100 | 100 | 100 | 80 | 40 | 90 | 90 | 80 |  |  |  |  |  |  |  |  |  | 
8 | CCc1nc2nc(C(F)(F)F)c(C(=O)C3C(=O)CCCC3=O)cc2cc1F [Compound 1.67, 2-[7-ethyl-6-fluoro-2-trifluoromethyl-[1,8]-naphthyridine-3-carbony]-cyclohexane-1,3-dione] | 100 | 90 | 100 | 100 | 100 | 90 | 90 | 100 | 80 | 90 |  |  |  |  |  |  |  |  |  | 
9 | O=C1CCCC(=O)C1C(=O)c1cc2ccc(O)nc2nc1C(F)(F)F [Compound 1.21, 2-(7-hydroxy-2-trifluoromethyl-[1,8]-naphthyridine-3-carbony)-cyclohexane-1,3-dione] |  |  |  |  |  |  |  |  |  |  | 100 | 80 | 100 | 100 | 100 | 100 | 100 | 100 | 100 | 100
10 | O=C(Cn1c(=O)ccc2cc(C(=O)C3C(=O)CCCC3=O)c(C(F)(F)F)nc21)c1ccccc1 [Compound 2.6, 2-{8-(2-phenyl-2-oxo-ethyl)-7-oxo-7,8-dihydro-2-trifluoromethyl-[1,8]-naphthyridine-3-carbony}-cyclohexane-1,3-dione] | 10 | 20 | 90 | 60 | 40 | 70 | 40 | 90 | 90 | 70 |  |  |  |  |  |  |  |  |  | 
11 | Cc1ccc2cc(C(=O)C3C(=O)CCCC3=O)c(C(F)(F)Cl)nc2n1 [Compound 1.89, 2-[2-chlorodifluoromethyl-7-methyl [1,8]-naphthyridine-3-carbony]-cyclohexane-1,3-dione] | 100 | 40 | 100 | 100 | 100 | 80 | 70 | 90 | 100 | 90 |  |  |  |  |  |  |  |  |  | 
12 | CC(CF)c1ccc2cc(C(=O)C3C(=O)C4CCC(C4)C3=O)c(C(F)(F)F)nc2n1 (stereo not drawn) [Compound 3.11] | 90 | 70 | 100 | 100 | 100 | 90 | 70 | 90 | 100 | 80 |  |  |  |  |  |  |  |  |  | 
